Results on seven compounds are retold here after US12409182B2, “Compositions and uses thereof for treatment of idiopathic preterm birth” (UNIVERSITY OF SOUTH FLORIDA, priority 2020, dated 2025).

Data set [1] has as its system FKBP51. The data set is described as follows: Dexamethasone-induced FKBP51 protein levels in decidual cell monolayers (immunoblot). Type of data set: cell-based. The note with it: confluent leukocyte-free term decidual cells, 10^-7 M Dex + compound, 24 h. The method, then:
Three endogenous biochemicals (CC #1, CC #2, CC #3), which exist in human blood/tissues were tested as potential inhibitors of FKBP51 expression/action and confirmed that dexamethasone-induced inhibits FKBP51 expression in decidual cell cultures by all three compounds (FIG. 1).
(In western blotting, separated proteins are transferred to a membrane and probed.)

Data set [2] relates to Fkbp5+/+ and Fkbp5-/- mice. As to the kind of experiment: Maternal dexamethasone or corticosterone injection, gestational length in Fkbp5+/+ or Fkbp5-/- mice. The note with it: corticosterone 10 mg/kg s.c. daily E8 through E18, Fkbp5+/+ or Fkbp5-/- mice. Type of data set: in vivo. The method, then: Timing of Labor in Fkbp5^+/+ and Fkbp5^−/− Mice. To examine the effect of deletion of the Fkbp5 gene on birth timing, female Fkbp5^+/+ and Fkbp5^−/− mice (6-8 weeks-old) were mated with an adult Fkbp5^+/+ male (12-16 weeks old) by housing 1:1 for 4 h (9.00 am-1.00 pm). Pregnancy was confirmed by the presence of a vaginal plug or sperm in vaginal smears; gestational day (E) was designated at that time (10.00 am) as 0 dpc of pregnancy. The timing of delivery was monitored from E18 through E21 by observing mice every 4 h upon completion of delivery, and gestational length was calculated. Litter size, numbers of live and dead pups were recorded. Additionally, to determine whether there was a relative contribution of fetal genotype on birth timing, female Fkbp5^−/− mice were also mated with an adult male Fkbp5^−/− mice as described above and timing of labor was recorded.
Maternal Dexamethasone or Corticosterone injection. Dexamethasone-21-phosphate disodium salt (DEX; Sigma-Aldrich, St. Louis, MO) suspended in sterile PBS was administered intraperitoneally at 200 μg/kg. Corticosterone (CORT; Sigma-Aldrich) was dissolved in ethyl alcohol and diluted in PBS before injection and administered subcutaneously at 10 mg/kg. […]

Data set [3] concerns maternal stress induced pregnant mice. The data set is described as follows: Maternal restraint stress induced preterm birth and fetal growth restriction in wild-type mice. The data set is classed as in vivo. Conditions: for litter size: 0.5 mg/kg daily i.p. GD14 to GD18, maternal stress administered mice; for maternal stress induced fetal growth restriction (pup birth weight) / maternal stress induced preterm birth (gestational length): 0.5 mg/kg daily i.p. GD14 to GD18, restraint stress GD8-GD18, vs placebo. The method, then: (§1) Wild-type adult female mice were mated with adult males by housing 1:1 for 4 h (9.00 am-1.00 pm). Pregnancy was confirmed by observing vaginal plug and the presence of sperm in vaginal smears, which was designated as gestation day (GD) 0 dpc (10.00 am). Time-mated pregnant mice were randomly assigned into non-stress or restraint stress (ST) groups. Restraint stress was administered in three sessions for 1 h using standard restraint chambers starting on GD 8 through GD 18, while the control group was left undisturbed during pregnancy. Before first restrained stress administration, daily intraperitoneal injection of CC #1 (0.5 mg/kg) or CC #2 (0.5 mg/kg) or placebo (PBS) was administered in ST-mice from GD14 to GD 18. The timing of delivery was monitored. Pups weight, litter size, numbers of live and dead pups were recorded.
as §1, with “Experimental design to test effects of CC #1 and CC #2 administration in maternal stress induced pregnant mice (FIG. 2). Wild-type adult” for “Wild-type adult”, “stress was performed in three” for “stress was administered in three”, “daily intraperitoneal (I.P.) injection of” for “daily intraperitoneal injection of”

Data set [4] concerns FKBP51. Conditions: cultured primary human decidual cells; cited from earlier work.
In data set [5] the test system is Srd5a1 deficient mice. The note with it: Srd5a1 deficient mice (27% delivery rate without treatment); cited from earlier work.

As to `CCCCCCCC/C=C(\CCCCCCCC(=O)O)[N+](=O)[O-]` [CC #3, 9-nitro-9E-octadecenoic acid], the “dexamethasone-induced FKBP51 protein levels” value in data set [1] is listed as “inhibits dexamethasone-induced FKBP51 protein levels”. On to `C[C@]12C[C@H](O)[C@H]3[C@@H](CCC4=CC(=O)CC[C@@]43C)[C@@H]1CC[C@@H]2C(=O)CO` [corticosterone, Corticosterone], for which, in data set [2], the gestational length result is given as “did not shorten gestation”.

For `CCCCCCCC/C(=C\CCCCCCCC(=O)O)[N+](=O)[O-]` [CC #2, 10-nitro-9E-octadecenoic acid], the “dexamethasone-induced FKBP51 protein levels” value in data set [1] is recorded as “inhibits dexamethasone-induced FKBP51 protein levels”. In addition, in data set [3], the litter size entry is “did not affect litter size”, the “maternal stress induced fetal growth restriction (pup birth weight)” value was “prevent maternal stress induced FGR” and the “maternal stress induced preterm birth (gestational length)” value is listed as “prevent maternal stress induced PTB”. Regarding `CC[C@@H]1C[C@H]2[C@@H]3CCC4=CC(=O)CC[C@@H]4[C@H]3CC[C@]2(C)[C@H]1C(=O)CO` [Organon 2058], the FKBP51 levels result in data set [4] is recorded as “minimal stimulatory effects”. For the compound `CN(C)c1ccc([C@H]2C[C@]3(C)[C@@H](CC[C@]3(O)CCCO)[C@@H]3CCC4=CC(=O)CCC4=C32)cc1` [ZK98299], in data set [5], the parturition rate is listed as 100%.

For `CC(=O)O[C@]1(C(C)=O)CC[C@H]2[C@@H]3C[C@H](C)C4=CC(=O)CC[C@]4(C)[C@H]3CC[C@@]21C` [medroxyprogesterone acetate], the FKBP51 levels entry in data set [4] is listed as “up-regulated”. In the case of `CCCCC/C=C/C=C1/C(=O)C=C[C@@H]1C/C=C\CCCC(=O)O` [CC #1, 15-deoxy-Δ12,14-prostaglandin J2], the “dexamethasone-induced FKBP51 protein levels” value in data set [1] is given as “inhibits dexamethasone-induced FKBP51 protein levels”. Also, in data set [3], the litter size result is on record as “did not affect litter size”, the “maternal stress induced fetal growth restriction (pup birth weight)” value was “prevent maternal stress induced FGR” and the “maternal stress induced preterm birth (gestational length)” value is reported as “prevent maternal stress induced PTB”.
